Reference: patent publication EP1310250A1, “Use of the compound 2-methoxyphenyl-1-methyl-5P-methylbenzoyl-pyrrol-2-acetamido acetate for the production of an antiinflammatory drug with prevention of gastric hypersecretion and renal impairment” (MEDOSAN Ricerca S.r.l., priority 1997, dated 1999)

System: diuresis
Assay: Diuresis in normally hydrated rats
Format: in vivo
Conditions: normally hydrated rats treated orally for 8 consecutive days (figure 13)
Procedure: In the course of various studies conducted on animals to show the lack of renal impairment, a test was carried out to compare the diuresis in normally hydrated rats treated orally for 8 consecutive days with amtolmeting guacyl and diclofenac, which is also a NSAID.

## COc1ccccc1OC(=O)CNC(=O)Cc1ccc(C(=O)c2ccc(C)cc2)n1C [amtolmetin guacyl, 2-methoxyphenyl-1-methyl-5p-methylbenzoylpyrrol-2-acetamido acetate]
  diuresis: definite increase in diuresis
